For this assay, the target named is human DGAT1 (Homo sapiens (Human), UniProt O75907). Nature of the assay: DGAT1 Inhibition Assay. The class given is biochemical. The following applies: membrane preparation from Sf9 cells overexpressing human (His)6DGAT1; LC/MS/MS readout. The protocol:
The enzyme preparation used in this assay is a membrane preparation from Sf9 cells overexpressing human (His)6DGAT1. During all steps samples were chilled to 4° C. Sf9 cells expressing human (His)6DGAT1 were thawed at room temperature and re-suspended at a 10:1 ratio (mL buffer/g of cells) in 50 mM HEPES, 1× Complete Protease Inhibitor, pH 7.5. The re-suspended pellet was homogenized for 1 min using a Brinkman PT 10/35 homogenizer with a 20 mm generator. Cells were lysed using Avestin Emulsiflex (chilled to 4° C.) at 10000-15000 psi. Lysate was centrifuged at 100,000×g for 1 h at 4° C. Supernatant was removed and pellets were re-suspended in 50 mM HEPES, 1× Complete Protease Inhibitor, pH 7.5 at ⅙ the volume of supernatant. Re-suspended pellets were pooled and homogenized with 10 strokes of a Glas-Col motor driven teflon pestle on setting 70. The protein concentration of the membrane preparation was quantified using BCA protein assay with 1% SDS. The membrane preparation was aliquoted, frozen on dry ice, and stored at −80° C.
For 50 mL, 25 mL of 0.2 M HEPES stock buffer, 0.5 mL of 1 M MgCl2 ([…]), and 24.5 mL of milli-Q H2O are added to the 55 mL Wheaton Potter-Elvehjem homogenizer. Enzyme preparation (0.1 mL) is added to buffer and the mixture is homogenized with 5 strokes on ice using the Glas-Col variable speed homogenizer system on setting 70.
For 50 mL, 0.5 mL 10 mM diolein is added to 9.5 mL of EtOH in a 50 mL Falcon screw cap conical centrifuge tube. Five mL of 10 mM sodium acetate pH 4.5 is added followed by 0.5 mL of 10 mM oleoyl-CoA. Finally, the remaining 4.5 mL of 10 mM sodium acetate pH 4.5 is added followed by 30 mL of milli-Q H20. The solution should be gently agitated by hand to induce mixing. The final concentrations of EtOH and sodium acetate are 20% and 2 mM, respectively.
Dry compounds are dissolved in the appropriate volume of DMSO to a final concentration of 10 mM. A 10-point, 3-fold dose response is used to evaluate compound potency. All dilutions are performed in DMSO in a Greiner 384-well microplate. • 1. 2 μL of compound in DMSO is added to the appropriate wells, 2 μL of DMSO is added to 100% activity and 100% inhibition controls. • 2. 25 μL of enzyme mix is added to all wells and plate(s) are incubated for 10 min at RT. • 3. 10 μL of 20% acetic acid quench is added to 100% inhibition control wells. Plate(s) are vortexed using Troemner multi-tube vortexer (setting 7 for 10 sec). • 4. 25 μL of substrate mix is added to all wells. Plate(s) are vortexed using Troemner multi-tube vortexer (setting 7 for 10 sec). Plate(s) are incubated for 30 min at RT. • 5. 10 μL of 20% acetic acid quench is added to all wells. Plate(s) are vortexed using Troemner multi-tube vortexer (setting 7 for 10 sec). • 6. 50 μL of 1-butanol w/glyceryl tripalmitoleate internal standard is added to all wells. • 7. Plate(s) are sealed with super pierce strong plate sealer using the thermo-sealer. • 8. Plate(s) are vortexed using Troemner multi-tube vortexer (setting 10 for 5 min). • 9. Plate(s) are centrifuged at 162×g (1000 rpm for GH-3.8 rotor) for 5 min using Beckman GS-6R tabletop centrifuge.
Samples were analyzed by LC/MS/MS using a Waters 1525μ LC and Quattro Micro API MS. Where indicated, tripalmitolein was used as an internal standard to control for instrument variation.
Data is converted to % inhibition prior to curve fitting using the following equation: […]
human DGAT1, sequence (O75907 whole entry): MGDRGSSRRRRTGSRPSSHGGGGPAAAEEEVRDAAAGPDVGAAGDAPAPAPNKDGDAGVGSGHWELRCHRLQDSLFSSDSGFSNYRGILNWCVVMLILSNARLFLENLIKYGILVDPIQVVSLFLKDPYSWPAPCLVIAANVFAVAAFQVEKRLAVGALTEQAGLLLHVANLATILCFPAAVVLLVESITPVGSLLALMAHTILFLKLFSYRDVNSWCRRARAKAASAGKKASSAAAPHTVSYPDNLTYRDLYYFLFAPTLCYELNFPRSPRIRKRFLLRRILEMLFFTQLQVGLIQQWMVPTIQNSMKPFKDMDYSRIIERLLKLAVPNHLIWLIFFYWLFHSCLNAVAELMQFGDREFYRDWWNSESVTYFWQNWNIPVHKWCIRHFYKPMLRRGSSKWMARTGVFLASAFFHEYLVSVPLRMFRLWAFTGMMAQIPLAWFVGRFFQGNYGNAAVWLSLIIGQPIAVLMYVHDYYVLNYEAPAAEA
On to `CC(C)(NC(=O)c1cncs1)C(=O)Nc1nc(-c2ccc(F)cc2)c(Oc2ccc(F)cc2)s1` [Example 6-14, Thiazole-5-carboxylic acid {1-[5-(4-fluoro-phenoxy)-4-(4-fluoro-phenyl)-thiazol-2-ylcarbamoyl]-1-methyl-ethyl}-amide], for which the IC50 (in general, the concentration that gives 50% inhibition) is 197 nM. The figure for `Cc1ccc(-c2cc(NC(=O)[C@@H]3CCCN3C(=O)OC(C)(C)C)nc(-c3ccccc3)c2)cc1` [Example 8-2, (S)-2-(6-Phenyl-4-p-tolyl-pyridin-2-ylcarbamoyl)-pyrrolidine-1-carboxylic acid tert-butyl ester] is 240 nM.

`CC(C)(NC(=O)c1ccc2occc2c1)C(=O)Nc1nc(-c2ccccc2)c(Cc2ccccc2)s1` [Example 1-28, Benzofuran-5-carboxylic acid [1-(5-benzyl-4-phenyl-thiazol-2-ylcarbamoyl)-1-methyl-ethyl]-amide] had a half-maximal inhibitory concentration (IC50) of 11 nM. The result for `CN1CCC[C@H]1C(=O)NC(C)(C)C(=O)Nc1nc(-c2ccc(F)cc2)n(Cc2ccccc2)n1` [Example 14-3, (S)-1-Methyl-pyrrolidine-2-carboxylic acid {1-[1-benzyl-5-(4-fluoro-phenyl)-1H-[1,2,4]triazol-3-ylcarbamoyl]-1-methyl-ethyl}-amide] reads 2300 nM; that for `CC(C)(NC(=O)N1CCCOCC1)C(=O)Nc1nc(C(F)(F)F)c(C(=O)c2ccc(F)cc2)s1` [Example 12-4, [1,4]Oxazepane-4-carboxylic acid {1-[5-(4-fluoro-benzoyl)-4-trifluoromethyl-thiazol-2-ylcarbamoyl]-1-methyl-ethyl}-amide], 2080 nM; that for `Cc1ccccc1NC(=O)N1CCCC1C(=O)Nc1nc(-c2ccccc2)c(Cc2ccccc2)s1` (stereo not shown) [Example 4-2, Pyrrolidine-1,2-dicarboxylic acid 2-[(5-benzyl-4-phenyl-thiazol-2-yl)-amide] 1-o-tolylamide], 232 nM. The compound `O=C(Nc1cc(-c2ccccc2)c2ccccc2n1)C1CCCN1C(=O)CC1CCCC1` (stereo in doubt) [Example 8-1, (S)-1-(2-Cyclopentyl-acetyl)-pyrrolidine-2-carboxylic acid (4-phenyl-quinolin-2-yl)-amide] yielded an IC50 of 54.5 nM. The result for `CC(C)(NC(=O)c1ccccn1)C(=O)Nc1nc(-c2ccc(F)cc2)n(Cc2ccccc2)n1` [Example 14-4, Pyridine-2-carboxylic acid {1-[1-benzyl-5-(4-fluoro-phenyl)-1H-[1,2,4]triazol-3-ylcarbamoyl]-1-methyl-ethyl}-amide] reads 225 nM.

`O=C(Nc1nc(-c2ccccc2)c(Cc2ccccc2)s1)[C@@H]1CCCN1C(=O)Nc1ccc(C(F)(F)F)cc1F` [Example 4-9, (S)-Pyrrolidine-1,2-dicarboxylic acid 2-[(5-benzyl-4-phenyl-thiazol-2-yl)-amide] 1-[(2-fluoro-4-trifluoromethyl-phenyl)-amide]]: inhibition was half-maximal at 473 nM (IC50). Compared with the last compound, the IC50 is about 2.1-fold higher. `CC(C)(NC(=O)c1cccnc1)C(=O)Nc1nc(-c2ccc(F)cc2)c(Oc2ccc(F)cc2)s1` [Example 6-9, N-{1-[5-(4-Fluoro-phenoxy)-4-(4-fluoro-phenyl)-thiazol-2-ylcarbamoyl]-1-methyl-ethyl}-nicotinamide]: the midpoint of inhibition, the IC50, lay at 622 nM. The result for `CC(C)(NS(=O)(=O)c1ccc(F)cc1)C(=O)Nc1nc(-c2ccccc2)c(Cc2ccccc2)s1` [Example 1-6, N-(5-Benzyl-4-phenyl-thiazol-2-yl)-2-(4-fluoro-benzenesulfonylamino)-2-methyl-propionamide] reads 241 nM; that for `CC(C)(NC(=O)c1ccc(OC(F)(F)F)cc1)C(=O)Nc1nc(-c2ccc(F)cc2)c(Oc2ccc(F)cc2)s1` [Example 6-1, N-{1-[5-(4-Fluoro-phenoxy)-4-(4-fluoro-phenyl)-thiazol-2-ylcarbamoyl]-1-methyl-ethyl}-4-trifluoromethoxybenzamide], 910 nM. The figure for `CC(C)(NC(=O)c1cnco1)C(=O)Nc1nc(-c2ccc(F)cc2)n(Cc2ccccc2)n1` [Example 14-24, Oxazole-5-carboxylic acid {1-[1-benzyl-5-(4-fluoro-phenyl)-1H-[1,2,4]triazol-3-ylcarbamoyl]-1-methyl-ethyl}-amide] is 1750 nM; for `CCOc1ccc(C(=O)NC(C)(C)C(=O)Nc2nc(-c3ccccc3)c(Cc3ccccc3)s2)cc1OCC` [Example 1-1, N-[1-(5-Benzyl-4-phenyl-thiazol-2-ylcarbamoyl)-1-methyl-ethyl]-3,4-diethoxy-benzamide] it is 60.5 nM. `Cc1cc(C(=O)NC(C)(C)C(=O)Nc2nc(-c3ccc(F)cc3)n(Cc3ccccc3)n2)no1` [Example 14-28, 5-Methyl-isoxazole-3-carboxylic acid {1-[1-benzyl-5-(4-fluoro-phenyl)-1H-[1,2,4]triazol-3-ylcarbamoyl]-1-methyl-ethyl}-amide] yielded an IC50 of 6130 nM. `COc1ccccc1C(=O)NC(C)(C)C(=O)Nc1nc(-c2ccccc2)c(Cc2ccccc2)s1` [Example 1-8, N-[1-(5-Benzyl-4-phenyl-thiazol-2-ylcarbamoyl)-1-methyl-ethyl]-2-methoxy-benzamide] yielded an IC50 of 8.5 nM. With `CC(C)(NC(=O)c1ccccn1)C(=O)Nc1nc(-c2ccccc2)c(Cc2ccccc2)s1` [Example 1-29, Pyridine-2-carboxylic acid [1-(5-benzyl-4-phenyl-thiazol-2-ylcarbamoyl)-1-methyl-ethyl]-amide], the IC50 was determined as 3.5 nM. The figure for `CC(C)(NC(=O)N1CCOCC1)C(=O)Nc1nc(-c2ccc(F)cc2)c(Oc2ccc(F)cc2)s1` [Example 6-2, Morpholine-4-carboxylic acid {1-[5-(4-fluoro-phenoxy)-4-(4-fluoro-phenyl)-thiazol-2-ylcarbamoyl]-1-methyl-ethyl}-amide] is 52.5 nM; for `CC1(C(=O)NC(C)(C)C(=O)Nc2nc(C(F)(F)F)c(C(=O)c3ccc(F)cc3)s2)CC1` [Example 12-3, 1-Methyl-cyclopropanecarboxylic acid {1-[5-(4-fluoro-benzoyl)-4-trifluoromethyl-thiazol-2-ylcarbamoyl]-1-methyl-ethyl}-amide] it is 1180 nM.

These data come from patent US8703761B2, “Organic compounds” (Novartis AG, priority 2008, dated 2014).
